According to US6713506B2, “Tea polyphenol esters and analogs thereof for cancer prevention and treatment” (University of South Florida, priority 2000, dated 2004):
Entries after “also recorded” stand apart in the source; their conditions may differ.

What was measured:
[1] = target: T1, chymotrypsin-like activity in living breast (MCF7) cancer cells (Homo sapiens, UniProt P28074); assay: Proteasome chymotrypsin-like activity in living MCF7 cells; type: cell-based
T1 construct: endogenous in cells; host or cells: MCF7 cells (intact)
Procedure: FIG. 16(A) The fluorogenic calpain I peptide substrate Suc-Leu-Tyr-AMC (S; 40 μM) is incubated with either a purified calpain I (P; 3 μg) or buffer (Buff) at 30° C. for 30 min with or without 10 μM calpeptin, EGCG or EGC, followed by measuring AMCs (the product), as described in the text. (B) T1 or T2 cells are treated with LLL at either 10 (A-C) or 50 μM (D, E), followed by Western blotting with indicated antibodies.(C) MCF-7 cells, pre-incubated with EGCG at an indicated concentration for 12 h, are incubation for additional 12 h with 20 μM Suc-Leu-Leu-Val-Tyr-AMC (the peptide substrate for the proteasomal chymotryptic activity), followed by measurement of AMCs in medium (as described in the grant and the manuscript). (D) Cell cycle-dependent p27 degradation. PCI-13 head and neck tumor cells are treated with aphidicolin (5 μg/ml) for 24 h (0 h), followed by release for up to 24 h. […]
(§1) (b) The peptide substrate for the proteasomal chymotrypsin-like activity, Suc-Leu-Leu-Val-Tyr-AMC, is used to measure the proteasome activity in intact Jurkat, MCF-7 and PC-3 cells, which is inhibitable by co-incubation with EGCG (FIG. 16C). […] After that, medium is collected and the liberated AMCs in the medium are measured by fluorometer to measure in vivo potency and selectivity of tea polyphenols.

[2] = test system: LNCaP prostate cancer cells; assay: Cell cycle analysis by flow cytometry, LNCaP cells; type: cell-based, human; conditions: 10 μM, 36 h
Procedure: FIG. 6. Cell cycle analysis. Asynchronous Jurkat, LNCaP, WI-38, and VA-13 cells are treated with 10 μM EGCG and harvested at the time points indicated. Cells are prepared and analyzed by flow cytometry as described in the The Materials and Methods section of Example 1. Growth arrest is determined by the increase in the percentage of G1 population.
Cell cycle analysis—Cell cycle analysis based on DNA content is performed as follows. Cells are harvested, counted and washed twice with PBS. Cells (5×10^6 ) are then suspended in 0.5 ml PBS, pipetted and fixed in 5 ml of 70% ethanol for at least 2 h at −20° C. Cells are centrifuged, resuspended in 1 ml of propidium iodide staining solution (50 μg propidium iodide, 100 units RNase A and 1 mg glucose per ml PBS) and incubated at room temperature for 30 min. The cells are then analyzed with FACScan (Becton Dickinson Immunocytometry, CA.), ModFit LT and WinMDI V.2.8 cell cycle analysis software (Verity Software, Topsham, Me.). The cell cycle distribution is shown as the percentage of cells containing G1, S, G2, and M DNA judged by propidium iodide staining.

[3] = target: T2, chymotrypsin-like activity in living prostate (PC-3) cancer cells (Homo sapiens, UniProt P28074); assay: Proteasome chymotrypsin-like activity in living PC-3 cells; type: cell-based
T2 construct: endogenous in cells; host or cells: PC-3 cells (intact)
Procedure: Inhibition of the proteasome activity in living cells by tea polyphenols—To measure inhibition of the chymotrypsin-like activity in living tumor cells, Jurkat T (1×10^5 cells/ml/well), MCF7 or PC-3 cells (1×10^4 cells/ml/well) are cultured in 24-well plates. These cells are first incubated for 12 h with various concentrations of EGCG, EGC, β-lactone or LLnL, followed by an additional 2 h-incubation with fluorogenic peptide substrates, Suc-Leu-Leu-Val-Tyr-AMC for the chymotrypsin-like activity and Z-Gly-Gly-Arg-AMC for the trypsin-like activity. After that, cell medium (200 μl per sample) is collected and used for measurement of free AMCs.
as §1, with “16C). A similar assay is performed to measure potency and selectivity of EGCG (vs. EGC) or ECG (vs. EC) in the selected cell lines.” for “16C).”

[4] = target: T3, proteasomal PGPH activity in Jurkat T cell extract (Homo sapiens, UniProt P28072); assay: Proteasome PGPH activity in Jurkat T cell free extract; type: biochemical; conditions: EGCG 10 μM
T3 construct: endogenous in cells; host or cells: Jurkat T cell whole cell extract
Procedure: Inhibition of the proteasome activity with cell free extracts by tea polyphenols—The whole cell extract (3.5 μg) from Jurkat T cells is incubated for 90 min at 37° C. with 20 μM of a fluorogenic peptide substrate, Suc-Leu-Leu-Val-Tyr-AMC (for the chymotrypsin-like activity), Z-Leu-Leu-Glu-AMC [peptidyl-glutamyl peptide-hydrolyzing (PGPH) activity; Calbiochem], and Z-Gly-Gly-Arg-AMC (for the trypsin-like activity; Bachem), in 100 μl of the assay buffer with or without 10 μM EGCG or EGC. The hydrolyzed AMCs are quantified as described above.

O=C(O[C@@H]1Cc2c(O)cc(O)cc2O[C@@H]1c1cc(O)c(O)c(O)c1)c1cc(O)c(O)c(O)c1 [EGCG, (−)-epigallocatechin-3-gallate]
inhibition of chymotrypsin-like activity in living MCF7 cells (in words) [1]: inhibitable; also recorded: inhibits | increase in G1 population [2]: ~25% | inhibition of chymotrypsin-like activity in living PC-3 cells (in words) [3]: inhibitable; also recorded: inhibits | inhibition of proteasomal PGPH activity (in words) [4]: potently inhibits
